Each block holds one compound with its values, some of them ahead of it.
Tests used:
[1] = PROTAC activity at SMARCA2/VHL in human MV4-11 cells assessed as protein degradation incubated for 18 hrs by Western blot analysis; format: cell-based; details: MV4-11, 18 h
[2] = target: Protein cereblon/Cyclin-dependent kinase 9 (Homo sapiens, UniProt P50750+Q96SW2); assay: PROTAC activity at CRBN/CDK9 in human MV4-11 cells assessed as induction of CDK9 degradation measured for 3 days by Western blot analysis; format: cell-based
[3] = target: T1, Protein cereblon/Androgen receptor (Homo sapiens, UniProt P10275+Q96SW2); assay: PROTAC activity at AR/CRBN in human LNCaP cells assessed as protein degradation incubated for 24 hrs by Western blot analysis; format: cell-based
[4] = PROTAC activity at VHL/BRD4 in human HeLa cells assessed as degradation of BRD4 incubated for 16 hrs by Western blot analysis; format: cell-based
[5] = target: Protein cereblon/Poly [ADP-ribose] polymerase 1 (Homo sapiens, UniProt P09874+Q96SW2); assay: PROTAC activity at CRBN/PARP1 in human MDA-MB-231 cells assessed as degradation of PARP1 measured after 24 hrs by Western blot analysis; format: cell-based
[6] = target: von Hippel-Lindau disease tumor suppressor/Bromodomain-containing protein 9 (Homo sapiens, UniProt Q9H8M2+P40337); assay: PROTAC activity at VHL/BRD9 in human HeLa cells assessed as protein degradation by Western blot analysis; format: cell-based
[7] = PROTAC activity at human VHL/BRD4 in human MV4-11 cells assessed as degradation of BRD4 incubated for 16 hrs by Western blot analysis; format: cell-based; details: MV4-11, 16 h
[8] = target: von Hippel-Lindau disease tumor suppressor/Tyrosine-protein kinase BTK; assay: PROTAC activity at VHL/BTK in human THP-1 cells assessed as induction of BTK degradation incubated for 24 hrs by immunoblotting analysis
[9] = Downregulation of induced PCSK9 expression in HEK293 cells by Western blot analysis; format: functional, cell-based; details: Homo sapiens
[10] = target: Proprotein convertase subtilisin/kexin type 9 (Homo sapiens, UniProt Q8NBP7); assay: Binding affinity to PCSK9 (unknown origin) assessed as inhibition constant
[11] = target: von Hippel-Lindau disease tumor suppressor/Bromodomain-containing protein 4 (Homo sapiens, UniProt O60885+P40337); assay: PROTAC activity at human VHL/BRD4 in human HeLa cells assessed as degradation of BRD4 incubated for 24 hrs by Western blot analysis; format: cell-based
[12] = target: T1, Protein cereblon/Androgen receptor; assay: PROTAC activity at CRBN/AR in human VCaP cells assessed as induction of AR degradation incubated for 24 hrs by Western blot analysis; format: cell-based

Protein cereblon/Cyclin-dependent kinase 9, sequence (P50750 whole entry): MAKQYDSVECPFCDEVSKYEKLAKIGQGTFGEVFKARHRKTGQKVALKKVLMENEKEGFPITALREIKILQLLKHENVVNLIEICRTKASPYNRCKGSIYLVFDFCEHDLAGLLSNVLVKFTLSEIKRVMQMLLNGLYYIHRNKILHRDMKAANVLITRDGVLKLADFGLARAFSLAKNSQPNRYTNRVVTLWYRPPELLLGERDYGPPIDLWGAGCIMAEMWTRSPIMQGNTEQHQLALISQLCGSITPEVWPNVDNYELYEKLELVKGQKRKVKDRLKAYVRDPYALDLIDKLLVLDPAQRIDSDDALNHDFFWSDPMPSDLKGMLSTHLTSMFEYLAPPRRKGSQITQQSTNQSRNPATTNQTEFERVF
Protein cereblon/Cyclin-dependent kinase 9, sequence (Q96SW2 whole entry): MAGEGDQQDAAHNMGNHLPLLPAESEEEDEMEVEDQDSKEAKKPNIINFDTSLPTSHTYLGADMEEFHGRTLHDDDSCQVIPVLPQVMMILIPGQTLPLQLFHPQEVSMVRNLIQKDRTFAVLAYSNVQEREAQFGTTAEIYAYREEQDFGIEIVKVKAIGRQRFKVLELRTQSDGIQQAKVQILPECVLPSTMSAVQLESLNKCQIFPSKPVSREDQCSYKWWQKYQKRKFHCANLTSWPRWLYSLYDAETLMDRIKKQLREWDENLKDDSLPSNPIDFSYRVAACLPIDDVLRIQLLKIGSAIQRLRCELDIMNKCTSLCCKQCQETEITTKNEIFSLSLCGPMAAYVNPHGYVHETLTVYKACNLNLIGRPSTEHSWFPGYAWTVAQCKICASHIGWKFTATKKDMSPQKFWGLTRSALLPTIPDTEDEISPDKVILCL
T1 sequence (P10275 whole entry): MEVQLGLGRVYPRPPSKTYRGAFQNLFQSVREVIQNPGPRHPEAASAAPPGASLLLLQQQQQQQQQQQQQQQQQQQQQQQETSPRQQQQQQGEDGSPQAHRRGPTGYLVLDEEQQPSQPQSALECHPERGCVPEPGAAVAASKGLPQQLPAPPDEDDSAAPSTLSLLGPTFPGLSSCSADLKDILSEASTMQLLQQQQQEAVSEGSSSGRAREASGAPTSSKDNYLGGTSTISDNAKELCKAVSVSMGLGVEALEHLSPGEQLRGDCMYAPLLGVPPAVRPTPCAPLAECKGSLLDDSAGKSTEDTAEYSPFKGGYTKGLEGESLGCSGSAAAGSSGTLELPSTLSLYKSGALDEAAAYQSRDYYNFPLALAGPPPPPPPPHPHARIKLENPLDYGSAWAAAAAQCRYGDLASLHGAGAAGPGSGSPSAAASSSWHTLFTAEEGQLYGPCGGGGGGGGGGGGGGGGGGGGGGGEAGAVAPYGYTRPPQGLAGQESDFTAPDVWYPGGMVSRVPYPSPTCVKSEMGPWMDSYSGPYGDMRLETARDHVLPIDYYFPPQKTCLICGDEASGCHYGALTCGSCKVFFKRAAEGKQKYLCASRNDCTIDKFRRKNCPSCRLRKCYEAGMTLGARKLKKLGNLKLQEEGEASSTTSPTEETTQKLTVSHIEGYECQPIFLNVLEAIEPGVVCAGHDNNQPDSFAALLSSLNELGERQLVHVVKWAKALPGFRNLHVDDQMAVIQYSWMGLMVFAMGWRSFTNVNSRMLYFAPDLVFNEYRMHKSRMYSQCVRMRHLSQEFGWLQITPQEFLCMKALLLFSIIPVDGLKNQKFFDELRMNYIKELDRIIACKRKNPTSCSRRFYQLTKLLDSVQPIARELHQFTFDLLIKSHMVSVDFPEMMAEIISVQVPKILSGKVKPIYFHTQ
T1 sequence (Q96SW2 whole entry): as the sequence (Q96SW2 whole entry) above
von Hippel-Lindau disease tumor suppressor/Bromodomain-containing protein 9, sequence (Q9H8M2 whole entry): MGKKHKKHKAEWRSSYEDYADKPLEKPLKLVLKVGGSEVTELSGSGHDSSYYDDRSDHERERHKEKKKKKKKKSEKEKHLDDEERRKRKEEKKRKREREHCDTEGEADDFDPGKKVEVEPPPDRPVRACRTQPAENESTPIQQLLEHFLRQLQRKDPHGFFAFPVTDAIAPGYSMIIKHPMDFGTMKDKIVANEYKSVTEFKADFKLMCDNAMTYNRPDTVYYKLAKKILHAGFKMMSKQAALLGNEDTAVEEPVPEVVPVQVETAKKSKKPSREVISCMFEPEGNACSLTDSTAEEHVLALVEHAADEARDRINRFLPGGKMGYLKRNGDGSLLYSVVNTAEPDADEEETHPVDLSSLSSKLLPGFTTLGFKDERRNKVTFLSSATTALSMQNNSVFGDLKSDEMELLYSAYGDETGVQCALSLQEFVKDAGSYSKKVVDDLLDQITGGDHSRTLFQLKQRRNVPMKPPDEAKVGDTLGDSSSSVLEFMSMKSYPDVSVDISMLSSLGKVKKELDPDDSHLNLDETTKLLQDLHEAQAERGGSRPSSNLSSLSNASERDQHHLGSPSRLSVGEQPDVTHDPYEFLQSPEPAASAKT
von Hippel-Lindau disease tumor suppressor/Bromodomain-containing protein 9, sequence (P40337 whole entry): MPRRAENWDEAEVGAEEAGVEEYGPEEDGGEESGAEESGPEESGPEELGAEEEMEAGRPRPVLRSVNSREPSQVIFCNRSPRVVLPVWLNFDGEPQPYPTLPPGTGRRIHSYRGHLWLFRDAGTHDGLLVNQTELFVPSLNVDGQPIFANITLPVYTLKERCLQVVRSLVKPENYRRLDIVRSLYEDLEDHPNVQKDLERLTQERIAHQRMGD
Proprotein convertase subtilisin/kexin type 9, sequence (Q8NBP7 31-152 limits assumed): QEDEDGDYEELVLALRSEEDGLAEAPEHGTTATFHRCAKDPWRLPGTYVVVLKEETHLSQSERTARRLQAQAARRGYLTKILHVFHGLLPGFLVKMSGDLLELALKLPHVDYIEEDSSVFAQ
Proprotein convertase subtilisin/kexin type 9, sequence (Q8NBP7 153-692 limits assumed): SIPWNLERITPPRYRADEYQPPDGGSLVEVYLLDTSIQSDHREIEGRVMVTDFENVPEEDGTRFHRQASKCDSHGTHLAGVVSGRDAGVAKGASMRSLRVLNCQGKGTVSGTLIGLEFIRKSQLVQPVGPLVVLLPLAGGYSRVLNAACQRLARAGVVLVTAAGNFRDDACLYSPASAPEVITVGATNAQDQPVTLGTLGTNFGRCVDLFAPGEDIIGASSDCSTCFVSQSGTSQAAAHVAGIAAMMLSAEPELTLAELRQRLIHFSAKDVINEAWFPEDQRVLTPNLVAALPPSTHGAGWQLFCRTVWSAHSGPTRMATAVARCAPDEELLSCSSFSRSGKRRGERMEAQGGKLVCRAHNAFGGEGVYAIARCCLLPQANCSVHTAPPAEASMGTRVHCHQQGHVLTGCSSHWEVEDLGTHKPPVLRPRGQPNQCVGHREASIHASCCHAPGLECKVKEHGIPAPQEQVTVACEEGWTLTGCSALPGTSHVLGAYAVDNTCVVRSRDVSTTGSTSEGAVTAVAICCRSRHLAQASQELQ
von Hippel-Lindau disease tumor suppressor/Bromodomain-containing protein 4, sequence (P40337 whole entry, looked up, other chains not shown): as the sequence (P40337 whole entry) above
Protein cereblon/Poly [ADP-ribose] polymerase 1, sequence (P09874 whole entry): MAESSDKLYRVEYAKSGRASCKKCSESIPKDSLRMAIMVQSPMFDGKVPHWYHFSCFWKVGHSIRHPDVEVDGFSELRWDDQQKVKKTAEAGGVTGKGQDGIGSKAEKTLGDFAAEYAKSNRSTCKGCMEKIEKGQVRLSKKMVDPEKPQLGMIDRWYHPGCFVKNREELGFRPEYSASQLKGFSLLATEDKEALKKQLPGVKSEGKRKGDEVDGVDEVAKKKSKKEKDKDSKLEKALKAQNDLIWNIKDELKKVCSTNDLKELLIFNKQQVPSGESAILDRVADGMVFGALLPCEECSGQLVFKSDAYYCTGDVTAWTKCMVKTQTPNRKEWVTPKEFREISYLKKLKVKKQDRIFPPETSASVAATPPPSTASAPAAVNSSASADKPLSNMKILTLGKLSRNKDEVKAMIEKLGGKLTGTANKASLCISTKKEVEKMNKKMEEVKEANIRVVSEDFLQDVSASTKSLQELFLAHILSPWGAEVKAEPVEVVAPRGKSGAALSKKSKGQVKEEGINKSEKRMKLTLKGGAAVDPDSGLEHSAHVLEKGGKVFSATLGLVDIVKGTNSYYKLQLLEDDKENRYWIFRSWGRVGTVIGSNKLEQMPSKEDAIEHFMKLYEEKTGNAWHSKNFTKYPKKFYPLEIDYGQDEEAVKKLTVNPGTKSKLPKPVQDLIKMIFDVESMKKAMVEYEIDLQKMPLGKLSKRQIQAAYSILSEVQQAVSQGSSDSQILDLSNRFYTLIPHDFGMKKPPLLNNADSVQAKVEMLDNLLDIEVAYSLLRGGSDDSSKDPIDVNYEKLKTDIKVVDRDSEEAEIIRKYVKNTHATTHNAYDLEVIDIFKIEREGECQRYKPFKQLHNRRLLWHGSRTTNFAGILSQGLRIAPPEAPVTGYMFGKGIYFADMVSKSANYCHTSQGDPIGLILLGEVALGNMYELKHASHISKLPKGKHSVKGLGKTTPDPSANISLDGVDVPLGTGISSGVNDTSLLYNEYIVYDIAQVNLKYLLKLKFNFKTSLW
Protein cereblon/Poly [ADP-ribose] polymerase 1, sequence (Q96SW2 whole entry): as the sequence (Q96SW2 whole entry) above

Structure (SMILES): CC1(C)[C@H](NC(=O)c2ccc(OCC(=O)NCCCOCCOCCOCCCN(C(=O)CCl)C(C(=O)NCc3ccccc3)c3ccc(Cl)c(Cl)c3)cc2)C(C)(C)[C@H]1Oc1ccc(C#N)c(Cl)c1 (some centres undefined)
DC50 [3]: < 10 µM

Structure (SMILES): Cc1sc2c(c1C)C(c1ccc(Cl)cc1)=N[C@@H](CC(=O)NCCCCOc1ccc(C3CC(c4ccc(Br)cc4)=NN3C(=O)CCl)cc1)c1nnc(C)n1-2 (some centres undefined)
DC50 [4]: < 10 µM

Structure (SMILES): Cc1sc2c(c1C)C(c1ccc(Cl)cc1)=N[C@@H](CC(=O)NCCCCOc1ccc(Oc3ccc(N(Cc4ccccc4)C(=O)CCl)cc3)cc1)c1nnc(C)n1-2
DC50 [4]: < 10 µM

Structure (SMILES): COc1ccc(C2=N[C@H](c3ccc(Cl)cc3)[C@H](c3ccc(Cl)cc3)N2C(=O)N2CCN(CC(=O)NCCOCCOCCOCCOCCn3cc(-c4ccc(-n5cc6cccc(C(N)=O)c6n5)cc4)nn3)C(=O)C2)c(OC(C)C)c1
DC50 [5]: < 10 µM

Structure (SMILES): CC(C)(C)OC(=O)N=C(NCCC[C@H](NC(=O)OC(C)(C)C)C(=O)NCCOCCOc1cc2c(cc1Oc1ccc(-c3ccc(C(=O)O)cc3)c(F)c1)[C@@](C)(CC(=O)Nc1nccs1)NCC2)NC(=O)OC(C)(C)C
IC50 [9]: 3.4 µM
Ki [10]: 107 nM

Structure (SMILES): Cc1ncsc1-c1ccc([C@H](C)NC(=O)[C@@H]2C[C@@H](O)CN2C(=O)[C@H](c2cc(N3CCC(CN4CCC(OC5CC(Oc6cc(N7[C@H]8CC[C@H]7CN(c7cc(-c9ccccc9O)nnc7N)C8)ccn6)C5)CC4)CC3)no2)C(C)C)cc1 (some centres undefined)
DC50 [1]: 0.03 nM

Structure (SMILES): Cc1sc2c(c1C)C(c1ccc(Cl)cc1)=N[C@@H](CC(=O)NCCCCCCCCCCNC(=O)[C@@]13CCC(C)(C)C[C@@H]1[C@@H]1C(=O)C=C4[C@]5(C)C=C(C#N)C(=O)C(C)(C)[C@H]5CC[C@]4(C)[C@@]1(C)CC3)c1nnc(C)n1-2
DC50 [2]: < 200 nM

Structure (SMILES): Cc1sc2c(c1C)C(c1ccc(Cl)cc1)=NC(CC(=O)NCCOCCOCCNC(=O)c1cccc(S(=O)(=O)Nc3ccc(C)c4c(C#N)c[nH]c34)c1)c1nnc(C)n1-2 (centres undefined)
DC50 [11]: 10.8 µM

Structure (SMILES): Cc1sc2c(c1C)C(c1ccc(Cl)cc1)=N[C@@H](CC(=O)NCCCOCCOCCOCCCNC(=O)COc1c(Br)cc(/C=C3\C(=O)Nc4ccc(I)cc43)cc1Br)c1nnc(C)n1-2 (stereo in doubt)
DC50 [7]: 900 nM

Results, then the compound that gave them:

DC50 [1]: 6 nM
Structure (SMILES): Cc1ncsc1-c1ccc(CNC(=O)[C@@H]2C[C@@H](O)CN2C(=O)[C@@H](NC(=O)C2(F)CC2)C(C)(C)C)c(OCCOc2ccc(CN3CCN(c4cc(-c5ccccc5O)nnc4N)CC3)cc2)c1

DC50 [2]: 9 nM
Structure (SMILES): COc1cc(/C=C/C(=O)N2CCC=CC2=O)cc(OC)c1OCCN1CCN(C(=O)CN2CCC(C(=O)Nc3ncc(SCc4ncc(C(C)(C)C)o4)s3)CC2)CC1

DC50 [4]: 36 µM
Structure (SMILES): COC(=O)C[C@H]1[C@]2(C)C3=C(C)[C@H](c4ccoc4-c4ccc(C(=O)NCCCNC(=O)C[C@@H]5N=C(c6ccc(Cl)cc6)c6c(sc(C)c6C)-n6c(C)nnc65)cc4)C[C@H]3O[C@@H]2[C@@H]2OC(=O)[C@]3(C)C=CC(=O)[C@@]1(C)[C@@H]23

DC50 [1]: 1 nM
Structure (SMILES): Cc1ncsc1-c1ccc([C@H](CC[C@H](C)CCN2CCC(c3ccc4c(c3)n(C3CCCC3)c3nc(=O)c5c(Br)cccc5n43)CC2)NC(=O)[C@@H]2C[C@@H](O)CN2C(=O)[C@@H](NC(=O)C2(F)CC2)C(C)(C)C)cc1

DC50 [6]: 90 nM
Structure (SMILES): COc1cc(-c2cn(C)c(=O)c3cnccc23)c(OC)cc1CN1CCC(OCCCCCC(=O)N2CCN(c3ccc4c(NCCN)nc(C5(c6ccc(Cl)cc6)CCCCC5)nc4c3)CC2)CC1

DC50 [7]: 3000 nM
Structure (SMILES): Cc1sc2c(c1C)C(c1ccc(Cl)cc1)=N[C@H](CC(=O)NCCCn1cc(CNC(=O)c3ccc(S(=O)(=O)N(CC#N)C(=O)CC45CC6CC(CC(C6)C4)C5)cc3)nn1)c1nnc(C)n1-2

DC50 [8]: 182 nM
Structure (SMILES): CN[C@@H](C)C(=O)N[C@H](C(=O)N1Cc2cc(OCCOCCOCCOCCOCCOC(=O)N3CCC[C@H](n4nc(-c5ccc(Oc6ccc(F)cc6F)cc5)c(C(N)=O)c4N)C3)ccc2C[C@@H]1C(=O)NC1CCCc2ccccc21)C(C)(C)C (some centres undefined)

DC50 [2]: < 500 nM
Structure (SMILES): CCOC(=O)C[C@@H](c1ccc(C)c(CN2C[C@@H](C)Oc3ccccc3S2(=O)=O)c1)c1cc(OCCNC(=O)CNC(=O)C[C@@H]2N=C(c3ccc(Cl)cc3)c3c(sc(C)c3C)-n3c(C)nnc32)c2c(c1)nnn2C

DC50 [12]: < 1 nM
Structure (SMILES): COc1cc(O[C@H]2C(C)(C)[C@H](NC(=O)c3ccc(N4CCC(CN5CCN(c6ccc(C(=O)N[C@H]7CCC(=O)NC7=O)c(F)c6)CC5)CC4)cc3)C2(C)C)ccc1C#N [LUXDEGALUTAMIDE]

Reference: ChEMBL document CHEMBL6109046, “Recent advances in developing targeted protein degraders” (Eur J Med Chem, 2025)
